In ChEMBL document CHEMBL1126395, “The synthesis of conformationally-restricted diacyl glycerol analogues” (1992):
Active and inactive are the calls of the source. No cut-off for these calls is given here.

Columns and labels:
HL-60 [1] = assay: Compound was tested for the inhibition of the growth of HL60 cells at a concentration 10E-4 M; NS no significant affect is observed; type: functional, cell-based; settings: Homo sapiens
[2] = molecular target: Protein kinase C (PKC) (Rattus norvegicus) (UniProt P05696+P68403+P09216+P63319+P09215+Q64617+Q9WTQ0+P09217); assay: Antagonist activity against protein Kinase C; type: functional
HL-60 [3] = assay: Compound was tested for the inhibition of the growth of HL60 cells at a concentration 10E-4 M; reduction of growth was observed; type: functional; settings: Homo sapiens

SMILES	Activity [2]	Activity (HL-60 [1])	inhibition at 100 µM (HL-60 [3])
CCCCCCCOC(=O)O[C@H]1OC(=O)C[C@@H]1O	–	inactive	–
CCCCCCCOC(=O)O[C@H]1OC(=O)[C@H](O)[C@@H]1OC(=O)OCCCCCCC	inactive	–	–

The next lines start with results.

Activity [2]	SMILES	Activity (HL-60 [1])	inhibition at 100 µM (HL-60 [3])
inactive	CCCCCCCOC(=O)O[C@@H]1[C@@H](CO)OC(=O)[C@@H]1OC(=O)OCCCCCCC	–	–
inactive	CCCCCCCOC(=O)O[C@H]1OC(=O)[C@H](O)[C@@H]1O	–	–
inactive	CCCCCCCOC(=O)O[C@H]1CC(=O)O[C@@H]1CO	–	20%
